Measurements taken from ChEMBL document CHEMBL2203185, “Development of sub-nanomolar dipeptidic ligands of neuropeptide FF receptors” (Bioorg Med Chem Lett, 2012).

Legend:
[1] = molecular target: T1, Neuropeptide FF receptor 1 (Homo sapiens, UniProt Q9GZQ6); experiment: Displacement of [3H]FFRF-NH2 from human flag-tagged NPFF1 receptor expressed in CHO cells by scintillation counting; assay type: cell-based
[2] = molecular target: T1, Neuropeptide FF receptor 1; experiment: Displacement of [3H]FFRF-NH2 from human flag-tagged NPFF1 receptor expressed in CHO cells at 500 nM by scintillation counting; assay type: cell-based
[3] = molecular target: T1, Neuropeptide FF receptor 1; experiment: Displacement of [3H]FFRF-NH2 from human flag-tagged NPFF1 receptor expressed in CHO cells at 5 uM by scintillation counting; assay type: cell-based
[4] = molecular target: T2, Neuropeptide FF receptor 2 (Homo sapiens, UniProt Q9Y5X5); experiment: Displacement of [3H]FFRF-NH2 from human flag-tagged NPFF2 receptor expressed in CHO cells by scintillation counting; assay type: cell-based
T2 sequence (Q9Y5X5 whole entry): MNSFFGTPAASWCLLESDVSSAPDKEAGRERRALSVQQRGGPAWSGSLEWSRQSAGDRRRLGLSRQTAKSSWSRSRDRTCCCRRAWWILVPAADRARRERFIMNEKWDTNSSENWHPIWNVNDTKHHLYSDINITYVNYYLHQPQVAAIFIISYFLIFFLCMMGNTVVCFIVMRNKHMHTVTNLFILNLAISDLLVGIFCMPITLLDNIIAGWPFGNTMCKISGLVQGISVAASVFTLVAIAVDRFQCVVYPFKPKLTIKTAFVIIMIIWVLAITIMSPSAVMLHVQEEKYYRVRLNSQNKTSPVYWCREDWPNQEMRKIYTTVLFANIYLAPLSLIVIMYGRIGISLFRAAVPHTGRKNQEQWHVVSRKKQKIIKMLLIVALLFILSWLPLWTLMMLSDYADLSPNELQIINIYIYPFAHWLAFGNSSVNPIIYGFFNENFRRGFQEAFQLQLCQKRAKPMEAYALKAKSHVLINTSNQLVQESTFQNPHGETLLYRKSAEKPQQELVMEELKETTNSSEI

[5] = molecular target: T2, Neuropeptide FF receptor 2; experiment: Displacement of [3H]FFRF-NH2 from human flag-tagged NPFF2 receptor expressed in CHO cells at 5 uM by scintillation counting; assay type: cell-based
[6] = molecular target: T2, Neuropeptide FF receptor 2; experiment: Displacement of [3H]FFRF-NH2 from human flag-tagged NPFF2 receptor expressed in CHO cells at 500 nM by scintillation counting; assay type: cell-based
[7] = molecular target: T2, Neuropeptide FF receptor 2; experiment: Ratio of RF2 Ki to compound Ki for human flag-tagged NPFF2 receptor

T1 sequence (Q9GZQ6 whole entry): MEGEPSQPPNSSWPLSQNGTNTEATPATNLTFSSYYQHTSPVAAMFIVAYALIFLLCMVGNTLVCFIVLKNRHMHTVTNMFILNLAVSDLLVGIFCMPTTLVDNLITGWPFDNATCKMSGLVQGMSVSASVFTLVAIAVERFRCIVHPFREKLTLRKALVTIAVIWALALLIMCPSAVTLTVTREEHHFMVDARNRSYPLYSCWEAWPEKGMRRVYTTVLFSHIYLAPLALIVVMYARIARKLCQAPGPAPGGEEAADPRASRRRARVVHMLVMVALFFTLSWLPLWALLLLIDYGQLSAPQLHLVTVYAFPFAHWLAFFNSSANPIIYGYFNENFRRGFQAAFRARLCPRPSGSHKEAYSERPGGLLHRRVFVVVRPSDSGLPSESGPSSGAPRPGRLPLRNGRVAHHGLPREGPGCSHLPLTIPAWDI

Row | SMILES | Ki [1] [nM] | inhibition [2] [%] | inhibition [3] [%] | Ki [4] [nM] | inhibition [5] [%] | inhibition [6] [%] | Ratio Ki [7]
1 | NC(=O)[C@@H](Cc1ccccc1)NC(=O)[C@@H](CCCN=C(N)N)NC(=O)c1ccccc1 | 198 |  |  | 2020 |  |  | 
2 | NC(=O)[C@@H](Cc1ccccc1)NC(=O)[C@@H](CCCN=C(N)N)NC(=O)c1ccc(-c2ccccc2)cc1 | 167 |  |  | 417 |  |  | 
3 | NC(=O)[C@H](Cc1ccccc1)NC(=O)[C@H](CCCN=C(N)N)NC(=O)c1ccc2ccccc2n1 | 121 |  |  | 47 |  |  | 
4 | N=C(N)NCCC[C@@H](NC(=O)C12CC3CC(CC(C3)C1)C2)C(=O)N[C@@H](Cc1ccccc1)C(N)=O | 29 | 85 | 100 | 142 | 60 | 21 | 
5 | NC(=O)[C@H](Cc1ccccc1)NC(=O)[C@@H](CCCN=C(N)N)NC(=O)Cc1ccccc1 | 35 |  |  | 425 |  |  | 
6 | NC(=O)[C@H](Cc1ccccc1)NC(=O)[C@@H](CCCN=C(N)N)NC(=O)c1cccc(-c2ccccc2)c1 | 6 |  |  | 9 |  |  | 
7 | NC(=O)[C@@H](Cc1ccccc1)NC(=O)[C@@H](CCCN=C(N)N)NC(=O)c1ccccc1-c1ccccc1 | 5 |  |  | 155 |  |  | 
8 | N=C(N)NCCC[C@H](NC(=O)CCC(=O)O)C(=O)N[C@@H](Cc1ccccc1)C(N)=O |  | 29 | 34 |  | 20 | 0 | 
9 | N=C(N)NCCC[C@H](NC(=O)c1[nH]c2ccccc2c1-c1ccccc1)C(=O)N[C@@H](Cc1ccccc1)C(N)=O |  | 39 | 92 |  | 27 | 14 | 
10 | NC(=O)[C@H](Cc1ccccc1)NC(=O)[C@H](CCCN=C(N)N)NC(=O)c1cccc2ccccc12 | 87 |  |  | 141 |  |  | 
11 | NC(=O)[C@@H](Cc1ccccc1)NC(=O)[C@@H](CCCN=C(N)N)NC(=O)Cc1ccccc1 | 273 |  |  | 3200 |  |  | 
12 | NC(=O)[C@@H](Cc1ccccc1)NC(=O)[C@@H](CCCN=C(N)N)NC(=O)c1cccc(-c2ccccc2)c1 | 110 |  |  | 672 |  |  | 
13 | NC(=O)[C@H](Cc1ccccc1)NC(=O)[C@H](CCCN=C(N)N)NC(=O)CCN1c2ccccc2Sc2ccccc21 | 0.9 |  |  |  |  |  | 
14 | N=C(N)NCCC[C@H](NC(=O)C12CC3CC(CC(C3)C1)C2)C(=O)N[C@H](Cc1ccccc1)C(N)=O | 114 | 18 | 79 | 424 | 49 | 4 | 
15 | NC(=O)[C@@H](Cc1ccccc1)NC(=O)[C@@H](CCCN=C(N)N)NC(=O)C12CC3CC(CC(C3)C1)C2 | 51 |  |  | 208 |  |  | 
16 | NC(=O)[C@H](Cc1ccccc1)NC(=O)[C@H](CCCN=C(N)N)NC(=O)c1ccccc1-c1ccccc1 | 0.32 |  |  | 590 |  |  | 
17 | CC(C)(C)c1ccc(C(=O)N[C@@H](CCCNC(=N)N)C(=O)N[C@@H](Cc2ccccc2)C(N)=O)cc1 |  | 43 | 94 |  | 31 | 14 | 
18 | NC(=O)[C@H](Cc1ccccc1)NC(=O)[C@H](CCCN=C(N)N)NC(=O)C12CC3CC(CC(C3)C1)C2 | 22 |  |  | 43 |  |  | 
19 | NC(=O)[C@H](Cc1ccccc1)NC(=O)[C@@H](CCCN=C(N)N)NC(=O)c1ccc(-c2ccccc2)cc1 | 2 |  |  | 94 |  |  | 

Further lines, results first:

Row | Ki [1] [nM] | inhibition [2] [%] | inhibition [3] [%] | Ki [4] [nM] | inhibition [5] [%] | inhibition [6] [%] | Ratio Ki [7] | SMILES
20 | 23 | 66 | 99 | 92 | 92 | 32 |  | N=C(N)NCCC[C@H](NC(=O)c1ccccc1)C(=O)N[C@@H](Cc1ccccc1)C(N)=O
21 | 10 | 75 | 82 | 4 | 100 | 84 |  | N=C(N)NCCC[C@@H](NC(=O)C(c1ccccc1)c1ccccc1)C(=O)N[C@@H](Cc1ccccc1)C(N)=O
22 | 11 | 80 | 90 | 22 | 92 | 55 | 5 | N=C(N)NCCC[C@@H](NC(=O)c1ccccc1)C(=O)N[C@@H](Cc1ccccc1)C(N)=O
23 | 378 | 41 | 89 | 136 | 70 | 38 |  | N=C(N)NCCC[C@H](NC(=O)c1ccc2cc[nH]c2c1)C(=O)N[C@@H](Cc1ccccc1)C(N)=O
24 | 0.8 | 84 | 95 | 117 | 58 | 18 |  | N=C(N)NCCC[C@@H](NC(=O)/C=C/c1ccccc1)C(=O)N[C@@H](Cc1ccccc1)C(N)=O
25 | 15 | 74 | 86 | 227 | 46 | 18 |  | N=C(N)NCCC[C@@H](NC(=O)C(c1ccccc1)c1ccccc1)C(=O)N[C@H](Cc1ccccc1)C(N)=O
26 | 2 | 89 | 97 | 4 | 90 | 65 |  | N=C(N)NCCC[C@@H](NC(=O)c1ccccc1-c1ccccc1)C(=O)N[C@@H](Cc1ccccc1)C(N)=O
27 | 106 | 11 | 85 | 206 | 60 | 5 |  | COc1cccc(C(=O)N[C@@H](CCCNC(=N)N)C(=O)N[C@@H](Cc2ccccc2)C(N)=O)c1
28 |  | 27 | 81 |  | 56 | 23 |  | N=C(N)NCCC[C@H](NC(=O)c1ccc2ccccc2c1)C(=O)N[C@@H](Cc1ccccc1)C(N)=O
29 |  | 35 | 100 |  | 64 | 21 |  | COc1ccc(/C=C/C(=O)N[C@@H](CCCNC(=N)N)C(=O)N[C@@H](Cc2ccccc2)C(N)=O)cc1
30 |  | 32 | 76 |  | 26 | 0 |  | N=C(N)NCCC[C@H](NC(=O)Cc1ccc(O)cc1)C(=O)N[C@@H](Cc1ccccc1)C(N)=O
31 |  | 68 | 87 |  | 40 | 30 |  | N=C(N)NCCC[C@@H](NC(=O)Cc1ccccc1)C(=O)N[C@@H](Cc1ccccc1)C(N)=O
32 |  | 19 | 77 |  | 54 | 14 |  | COc1ccc(C(=O)N[C@@H](CCCNC(=N)N)C(=O)N[C@@H](Cc2ccccc2)C(N)=O)cn1
33 |  | 9 | 28 |  | 27 | 8 |  | N=C(N)NCCC[C@H](NC(=O)c1ccc2nc[nH]c2c1)C(=O)N[C@@H](Cc1ccccc1)C(N)=O
34 |  | 85 | 99 |  | 72 | 65 |  | N=C(N)NCCC[C@@H](NC(=O)c1cccc(-c2ccccc2)c1)C(=O)N[C@@H](Cc1ccccc1)C(N)=O
35 |  | 3 | 58 |  | 46 | 24 |  | N=C(N)NCCC[C@H](NC(=O)/C=C/c1ccccc1)C(=O)N[C@@H](Cc1ccccc1)C(N)=O
36 |  | 15 | 78 |  | 40 | 0 |  | N=C(N)NCCC[C@H](NC(=O)c1cccc(C(=O)c2ccccc2)c1)C(=O)N[C@@H](Cc1ccccc1)C(N)=O
37 |  | 1 | 22 |  | 18 | 0 |  | N=C(N)NCCC[C@H](NC(=O)/C=C/c1cnc[nH]1)C(=O)N[C@@H](Cc1ccccc1)C(N)=O
38 |  | 18 | 74 |  | 21 | 2 |  | N=C(N)NCCC[C@H](NC(=O)c1ccncc1)C(=O)N[C@@H](Cc1ccccc1)C(N)=O
39 | 84 | 55 | 82 | 1620 | 14 | 0 |  | N=C(N)NCCC[C@@H](NC(=O)/C=C/c1ccccc1)C(=O)N[C@H](Cc1ccccc1)C(N)=O
40 |  | 81 | 92 |  | 57 | 43 |  | N=C(N)NCCC[C@@H](NC(=O)c1ccc(-c2ccccc2)cc1)C(=O)N[C@@H](Cc1ccccc1)C(N)=O
